Broadly, the inhibition is the change of the read-out against control, counted positive when it falls. One may read the Emax as the size of the effect at its maximum, as opposed to the concentration needed. A word on the EC50: it is the midpoint of the concentration-response curve. A high value points to a less potent agent. The Kd is the free concentration of one partner at which half of the binding sites on the other are occupied at equilibrium, for simple one-to-one binding. Higher therefore signals a looser complex. The pKb is −log10 of the Kb, conventionally taken in molar units.

From ChEMBL document CHEMBL3414563, “Rational design of partial agonists for the muscarinic m1 acetylcholine receptor” (J Med Chem, 2015) come the findings set out here.

Calls of active or inactive are those of the source. The calls are words filed in the database; no cut-off is given here.

For test [1], the target named is T1, Muscarinic acetylcholine receptor M1 (Homo sapiens) (UniProt P11229).
T1 sequence (whole entry): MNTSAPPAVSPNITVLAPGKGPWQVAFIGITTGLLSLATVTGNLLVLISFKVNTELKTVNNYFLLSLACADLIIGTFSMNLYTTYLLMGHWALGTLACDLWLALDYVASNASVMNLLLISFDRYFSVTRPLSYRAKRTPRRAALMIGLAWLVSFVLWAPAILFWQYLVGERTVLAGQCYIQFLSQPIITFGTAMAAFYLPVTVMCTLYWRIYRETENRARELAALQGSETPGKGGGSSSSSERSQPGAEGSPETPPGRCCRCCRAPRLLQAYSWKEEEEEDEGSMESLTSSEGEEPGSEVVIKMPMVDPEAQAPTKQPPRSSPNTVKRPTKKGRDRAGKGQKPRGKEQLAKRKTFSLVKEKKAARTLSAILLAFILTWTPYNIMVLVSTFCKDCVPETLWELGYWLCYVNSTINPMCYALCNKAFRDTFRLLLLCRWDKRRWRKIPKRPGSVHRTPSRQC
Nature of the test: Displacement of [3H]NMS from human muscarinic M1 acetylcholine receptor expressed in CHO cell membranes at 1 uM by radioligand binding assay. In general terms: In a radioligand displacement assay an active substance lowers the binding of a labelled ligand.

Test [2] addresses T1, Muscarinic acetylcholine receptor M1 (Homo sapiens). Nature of the test: Partial agonist activity at human muscarinic M1 acetylcholine receptor expressed in CHO cells assessed as increase in IP1 accumulation at 10 uM incubated for 30 mins by FRET based HTRF assay. In kind it is functional, cell-based.
Test [3] shares this target. In words: Agonist activity at human muscarinic M1 acetylcholine receptor expressed in CHO cells assessed as increase in IP1 accumulation at 1 uM incubated for 30 mins by FRET based HTRF assay. In kind it is functional, cell-based. In general terms: In TR-FRET formats the signal depends on donor and acceptor labels being close together.
The target is the same in test [4]. In words: Modulator activity at human muscarinic M1 acetylcholine receptor expressed in CHO cell membranes assessed as reduction in pIC50 for acetylcholine-induced inhibition of [3H]NMS binding by radioligand binding assay.
The target is the same in test [5]. In words: Allosteric inhibition of [3H]NMS dissociation rate constant k_1 from human muscarinic M1 acetylcholine receptor expressed in CHO cell membranes by radioligand binding assay. The settings on record: concentration not given here.
For test [6] the target is unchanged. Nature of the test: Displacement of [3H]NMS from human muscarinic M1 acetylcholine receptor expressed in CHO cell membranes by radioligand binding assay.
For test [7] the target is unchanged. In words: Modulator activity at human muscarinic M1 acetylcholine receptor expressed in CHO cell membranes assessed as induction of left shift of acetylcholine-induced inhibition of [3H]NMS binding by radioligand binding assay.
Test [8] has the same target. Nature of the test: Allosteric inhibition of [3H]NMS dissociation from human muscarinic M1 acetylcholine receptor expressed in CHO cell membranes by radioligand binding assay.
The target is the same in test [9]. Nature of the test: Partial agonist activity at human muscarinic M1 acetylcholine receptor expressed in CHO cells assessed as increase in IP1 accumulation at 10 uM incubated for 30 mins by FRET based HTRF assay relative to 100 uM acetylcholine. It is filed as functional, cell-based.
Test [10] shares this target. In words: Partial agonist activity at human muscarinic M1 acetylcholine receptor expressed in CHO cells assessed as increase in IP1 accumulation at 10 uM incubated for 30 mins in presence of 100 ng/ml Gi protein inhibitor PTX by FRET based HTRF assay. It is filed as functional, cell-based.
Test [11] concerns the target T2, Muscarinic acetylcholine receptor M1 (Homo sapiens, UniProt P11229).
T2 sequence (P11229 whole entry): T1 sequence (whole entry)
Description: Partial agonist activity at human muscarinic M1 acetylcholine receptor expressed in CHO cells assessed as increase in IP1 accumulation incubated for 30 mins by FRET based HTRF assay

Test [12] concerns the target T2, Muscarinic acetylcholine receptor M1. Nature of the test: biochemical.
Test [13] concerns the target T1, Muscarinic acetylcholine receptor M1 (Homo sapiens). Nature of the test: Partial agonist activity at human muscarinic M1 acetylcholine receptor expressed in CHO cells assessed as increase in IP1 accumulation at 10 uM incubated for 30 mins in presence of 1 uM Gq protein inhibitor UBO-QIC by FRET based HTRF assay. It is filed as functional, cell-based.
For test [14] the target is unchanged. In words: Partial agonist activity at human muscarinic M1 acetylcholine receptor expressed in CHO cells assessed as increase in IP1 accumulation at 1 uM incubated for 30 mins by FRET based HTRF assay relative to 100 uM acetylcholine. In kind it is functional, cell-based.
Test [15] shares this target. The settings on record: CHO.
Description: Displacement of [3H]NMS from human muscarinic M1 acetylcholine receptor expressed in CHO cell membranes assessed as equilibrium dissociation constant of dynamic ligand for active receptor binding pose by radioligand binding assay
Test [16] has the same target. Conditions: CHO. This is another data set of the same source.
Description: Displacement of [3H]NMS from human muscarinic M1 acetylcholine receptor expressed in CHO cell membranes assessed as equilibrium dissociation constant of dynamic ligand for inactive receptor binding pose by radioligand binding assay
The target is the same in test [17]. Nature of the test: Allosteric inhibition of [3H]NMS dissociation from human muscarinic M1 acetylcholine receptor expressed in CHO cell membranes assessed as […] in half life of dissociation by radioligand binding assay.
Test [18] has the same target. Nature of the test: Allosteric inhibition of [3H]NMS dissociation from human muscarinic M1 acetylcholine receptor expressed in CHO cell membranes assessed as half life of dissociation by radioligand binding assay.
The target is the same in test [19]. Nature of the test: Partial agonist activity at human muscarinic M1 acetylcholine receptor expressed in CHO cells assessed as increase in IP1 accumulation at 0.3 uM incubated for 30 mins by FRET based HTRF assay relative to 100 uM acetylcholine. In kind it is functional, cell-based.
Test [20] has the same target. Nature of the test: Partial agonist activity at human muscarinic M1 acetylcholine receptor expressed in CHO cells assessed as increase in IP1 accumulation at 10 uM incubated for 30 mins by FRET based HTRF assay in presence of 1 uM atropine. In kind it is functional, cell-based.

Take `O=C(NCCCCCCBr)c1cn(Cc2ccccc2)c2cc(Cl)c(F)cc2c1=O`: in test [1], the inhibition entry was “Active”. Besides, the outcome in test [2] and in [3] was inactive.
As for `O=C(NCCCCBr)c1cn(Cc2ccccc2)c2c(F)cccc2c1=O`, the inhibition result in test [4] is “Active”. Besides, in [5], the inhibition amounted to 35%. Also, the outcome in test [2] and in [3] was inactive. Moreover, in test [6], the Imax turned out to be 3 µM. The inhibition entry in test [7] was “inactive”. For the same compound, in [8], the pEC0.5 is 5.9.
`CC[C@@H]1SC2(CCNCC2)N(CCCCCCCCOc2ccc3cc(Cn4cc(C(=O)O)c(=O)c5cccc(F)c54)ccc3c2)C1=O`: the Emax in [9] is 61%. In [10], the outcome was Active. For the same compound, the EC50 in test [11] was 60.3 nM. In test [12], this compound showed a Kd of 166 nM.
As to `O=C(NCCCCBr)c1cn(Cc2ccccc2)c2cc(Cl)c(F)cc2c1=O`, the result in [2] and in test [3] was inactive.
In turn, `C[N+](C)(CC#CCOC1=NOCC1)CCCCNC(=O)c1cn(Cc2ccccc2)c2cc(Br)ccc2c1=O` showed an EC50 in test [11] of 63.1 nM. For the same compound, in test [12], the Kd was 141 nM. The outcome in test [13] was inactive.
As for `CC[C@@H]1SC2(CCNCC2)NC1=O`, in [9], the Emax came out at 12%.
On to `CCCCCCCCOc1ccc2cc(Cn3cc(C(=O)O)c(=O)c4cccc(F)c43)ccc2c1`, for which the result in [10] was Active. For the same compound, the Emax in test [14] is 1%.
Take `COc1ccc(Cn2cc(C(=O)O)c(=O)c3ccccc32)cc1`: the result in test [2] was Active. Also, the result in test [3] was inactive.
With `O=C(NCCCCCCBr)c1cn(Cc2ccccc2)c2c(F)cccc2c1=O`, in [4], the inhibition result was “Active”. In test [5], this compound had an inhibition of 47%. Further, the result in [2] and in test [3] was inactive. Besides, the Imax in test [6] was determined as 10 µM. Moreover, the inhibition result in [7] was “inactive”. In [8], this compound displayed a pEC0.5 of 6.15.
In test [11], `C[N+](C)(CC#CCOC1=NOCC1)CCCCNC(=O)c1cn(Cc2ccccc2)c2cc(Cl)c(F)cc2c1=O` showed an EC50 of 32.4 nM. Further, binding in test [12] was characterised by a dissociation constant (Kd) of 72.4 nM. For the same compound, the result in [13] was inactive.
As for `C[N+](C)(CC#CCOC1=NOCC1)CCCCNC(=O)c1cn(Cc2ccccc2)c2c(F)cccc2c1=O`, the inhibition result in test [4] was “Active”. The same compound showed a concentration giving a half-maximal response (EC50) in test [11] of 57.5 nM. In addition, the inhibition in test [5] amounted to 18%. For the same compound, the Kd in test [12] is 151 nM. Besides, the pKA in test [15] stood at 6.64. The result in [13] was inactive. Moreover, the inhibition result in [7] was “inactive”. The compound also returned a pEC0.5 in test [8] of 6.04. Also, in test [16], the pKb was 6.92.
Turning to `CCCCCCCCN1CCC(n2c(=O)[nH]c3ccccc32)CC1`, the result in test [10] was Active. The fold change (FC) in test [17] is 3. Also, the EC50 in test [11] is 537 nM. The compound further gave an inhibition in test [5] of 36%. The T1/2 in test [18] was found to be 8.9 min. The compound also registered a pEC0.5 in [8] of 5.94.
Consider `O=C(NCCCCBr)c1cn(Cc2ccccc2)c2cc(Br)ccc2c1=O`, for which the outcome in [2] and in test [3] was inactive.
Regarding `C[N+](C)(CC#CCOC1=NOCC1)CCCCCCNC(=O)c1cn(Cc2ccccc2)c2c(F)cccc2c1=O`, the inhibition entry in [4] is “Active”. This compound also gave a concentration giving a half-maximal response (EC50) in test [11] of 178 nM. Also, in test [5], the inhibition stood at 15%. Moreover, in [12], binding was put at a Kd of 490 nM. The compound also displayed a pKA in [15] of 6.98. Further, in test [13], the outcome was inactive. In test [7], the inhibition result was “inactive”. The same compound yielded a pEC0.5 in test [8] of 6.1. For the same compound, in test [16], the pKb was determined as 6.3.
As for `COc1ccc2cc(Cn3cc(C(=O)O)c(=O)c4cccc(F)c43)ccc2c1`, in test [10], the result was Active. Also, the Emax in test [19] turned out to be 1%.
Consider `CC[C@@H]1SC2(CCNCC2)N(CCCOc2ccc3cc(Cn4cc(C(=O)O)c(=O)c5cccc(F)c54)ccc3c2)C1=O`, for which, in test [9], the maximum response (Emax) worked out at 55%. For the same compound, in test [10], the result was Active. Besides, the outcome in test [20] was inactive.
In test [11], `C[N+](C)(CC#CCOC1=NOCC1)CCCCCCNC(=O)c1cn(Cc2ccccc2)c2cc(Cl)c(F)cc2c1=O` showed an EC50 of 302 nM. For the same compound, binding in test [12] was characterised by a dissociation constant (Kd) of 851 nM. Also, the result in test [13] was inactive.
On to `C[N+](C)(C)CC#CCOC1=NOCC1`, for which the EC50 in [11] was 2.04 nM. The compound further had a Kd in test [12] of 2140 nM.
In test [11], `C[N+](C)(CC#CCOC1=NOCC1)CCCCCCNC(=O)c1cn(Cc2ccccc2)c2cc(Br)ccc2c1=O` had an EC50 of 15.5 nM. The same compound had a Kd in test [12] of 74.1 nM. In addition, the outcome in test [13] was inactive.
The compound `C[N+](C)(CC#CCOC1=NOCC1)CCCCCCNC(=O)c1cn(Cc2ccccc2)c2ccc(F)cc2c1=O` had a half-maximal effective concentration (EC50) in test [11] of 58.9 nM. Also, the equilibrium dissociation constant (Kd) in test [12] was 151 nM. Also, the result in [13] was inactive.
Turning to `O=C(NCCCCCCBr)c1cn(Cc2ccccc2)c2cc(Br)ccc2c1=O`, the inhibition result in test [1] is “Active”. For the same compound, the outcome in test [2] and in test [3] was inactive.
